# Reference: the supplement of paper PMC11208160
# Assay: recombinant barcode read abundance after kanamycin selection (control-corrected) (log10(CPM+1)); higher = more efficient recombination; sequences stand for … in AGTGCAGAGAAAATCGGCCAGTTTTCTCTGCCTGCAGTCCGCATGCCGT…AGATTTATGCAGCGGACTGCCTTTCTCCCAAAGTGATAAACCGGACAGTATCATGGACCGGTTTTCCCGGTAATCCGTATTTGCAAGGTTGGTTTCACT; site = the 11-nt target
# Summary of the method: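 Targets and IS621 bridge RNA target-binding loops were paired in oligos, each with a promoter, a barcode and the J23119-driven first 104 bridge RNA bases. A vector carrying the remaining 73 bp and a T7-inducible recombinase received these by Gibson cloning, and the pool was co-electroporated into E. coli with a donor plasmid. Duplicate plates contained chloramphenicol/ampicillin LB agar (control) or chloramphenicol/ampicillin/kanamycin with 0.1 mM IPTG. Recombination efficiency comes from averaged, control-corrected counts per million of recombinant-junction barcodes, reported as log10(CPM+1).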
# 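Further: IS621 recombinase and bridge RNA in Escherichia coli cells.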
row,Sequence,recombinant barcode read abundance (log10)
1,TACAGAGCTTGGGTTCTAACCTGTTGCGG (site TAAAGAGCTCC),0.363
2,TACAGAGCTTGGGTTCTAACCTGTTGCGG (site TACAGAGCTCC),2.36
3,TACAGAGCTTGGGTTCTAACCTGTTGCGG (site TAGAGAGCTCC),0.127
4,TACAGAGCTTGGGTTCTAACCTGTTGCGG (site TATAGAGCTCC),0.488
5,TACAGGACTTGGGTTCTAACCTGTTGCAG (site TACAGGACTCT),2.15
6,TACAGGACTTGGGTTCTAACCTGTTGCAG (site TAGAGGACTCT),0.274
7,TACAGTTCTTGGGTTCTAACCTGTTGCTT (site TACAGTTCTAA),0.173
8,TACAGTTCTTGGGTTCTAACCTGTTGCTT (site TACCATTCTAA),0.107
9,TACATCCCTTGGGTTCTAACCTGTTGCCT (site TACATCCCTAG),0.915
10,TACATCCCTTGGGTTCTAACCTGTTGCCT (site TACATCCCTCG),0.0996
11,TACATCCCTTGGGTTCTAACCTGTTGCCT (site TACATCCCTGG),0.0929
12,TACATCCCTTGGGTTCTAACCTGTTGCCT (site TACATCCCTTG),0.0395
13,TACCCACCTTGGGTTCTAACCTGTTGCAG (site CCGAATTCTAA),0.159
14,TACCCACCTTGGGTTCTAACCTGTTGCAG (site TACCCACCTCT),2.41
15,TACCCTACTTGGGTTCTAACCTGTTGCTA (site TACCCGCCTTA),0.146
16,TACCCTACTTGGGTTCTAACCTGTTGCTA (site TACCCTACTTA),0.736
17,TACCGAGCTTGGGTTCTAACCTGTTGCTG (site CCTGTCACTTG),0.377
18,TACCGAGCTTGGGTTCTAACCTGTTGCTG (site TACCGAGCTCA),0.604
19,TACCGCTCTTGGGTTCTAACCTGTTGCTT (site TACAGCTCTAA),0.0488
20,TACCGCTCTTGGGTTCTAACCTGTTGCTT (site TACCGCTCTAA),1.01
21,TACCGCTCTTGGGTTCTAACCTGTTGCTT (site TACGGCTCTAA),0.043
22,TACCGCTCTTGGGTTCTAACCTGTTGCTT (site TACTGCTCTAA),0.158

row,Sequence,recombinant barcode read abundance (log10)
1,TACCGTCCTTGGGTTCTAACCTGTTGCAT (site TACCGTCCTAT),1.18
2,TACCGTCCTTGGGTTCTAACCTGTTGCAT (site TATCGTCCTAT),0.155
3,TACCGTCCTTGGGTTCTAACCTGTTGCGG (site GCGTCCTCTAA),0.312
4,TACCGTCCTTGGGTTCTAACCTGTTGCGG (site TACCGTCCTCC),1.8
5,TACCTTACTTGGGTTCTAACCTGTTGCAG (site AGAAGATCTAG),0.17
6,TACCTTACTTGGGTTCTAACCTGTTGCAG (site TACCTTACTCT),0.897
7,TACGAATCTTGGGTTCTAACCTGTTGCCT (site TACGAATCTAG),0.881
8,TACGAATCTTGGGTTCTAACCTGTTGCCT (site TACGAATCTCG),0.0232
9,TACGACACTTGGGTTCTAACCTGTTGCCT (site TACGACACTAG),1.9
10,TACGACACTTGGGTTCTAACCTGTTGCCT (site TCCGACACTAG),0.0501
11,TACGACTCTTGGGTTCTAACCTGTTGCTT (site TACGACTCTAA),1.73
12,TACGACTCTTGGGTTCTAACCTGTTGCTT (site TTCGACTCTTA),0.0713
13,TACGCACCTTGGGTTCTAACCTGTTGCGA (site GTAATTACTAG),0.297
14,TACGCACCTTGGGTTCTAACCTGTTGCGA (site TACGCACCTTC),1.03
15,TACGCGGCTTGGGTTCTAACCTGTTGCCT (site TACGAGGCTAG),0.0562
16,TACGCGGCTTGGGTTCTAACCTGTTGCCT (site TACGCGGCTAG),0.335
17,TACGCGGCTTGGGTTCTAACCTGTTGCCT (site TACGGGGCTAG),0.208
18,TACGCGGCTTGGGTTCTAACCTGTTGCCT (site TACGTGGCTAG),0.192
19,TACGCTCCTTGGGTTCTAACCTGTTGCCT (site TACGCTCCTAA),0.0709
20,TACGCTCCTTGGGTTCTAACCTGTTGCCT (site TACGCTCCTAC),0
21,TACGCTCCTTGGGTTCTAACCTGTTGCCT (site TACGCTCCTAG),0.271
22,TACGCTCCTTGGGTTCTAACCTGTTGCCT (site TACGCTCCTAT),0.452

row,Sequence,recombinant barcode read abundance (log10)
1,TACGGCTCTTGGGTTCTAACCTGTTGCTT (site TACAGCTCTAA),0.297
2,TACGGCTCTTGGGTTCTAACCTGTTGCTT (site TACCGCTCTAA),0.0429
3,TACGGCTCTTGGGTTCTAACCTGTTGCTT (site TACGGCTCTAA),1.51
4,TACGGCTCTTGGGTTCTAACCTGTTGCTT (site TACTGCTCTAA),0.0509
5,TACTAAGCTTGGGTTCTAACCTGTTGCTT (site TACTAAGCTAA),0.184
6,TACTAAGCTTGGGTTCTAACCTGTTGCTT (site TACTAAGCTAC),0.0381
7,TACTAAGCTTGGGTTCTAACCTGTTGCTT (site TACTAAGCTAG),0.0797
8,TACTAAGCTTGGGTTCTAACCTGTTGCTT (site TACTAAGCTAT),0.321
9,TACTACCCTTGGGTTCTAACCTGTTGCGT (site TACTACCCTAC),0.358
10,TACTACCCTTGGGTTCTAACCTGTTGCGT (site TGCCACCCTAC),1.28
11,TACTCCTCTTGGGTTCTAACCTGTTGCGG (site CTAAAAGCTTG),0.0539
12,TACTCCTCTTGGGTTCTAACCTGTTGCGG (site TACTCCTCTCC),0.155
13,TACTCTTCTTGGGTTCTAACCTGTTGCCT (site GGTCAACCTCC),0.0368
14,TACTCTTCTTGGGTTCTAACCTGTTGCCT (site TACTCTTCTAG),0.279
15,TACTGAACTTGGGTTCTAACCTGTTGCCT (site TACTAAACTAG),0.0356
16,TACTGAACTTGGGTTCTAACCTGTTGCCT (site TACTCAACTAG),0.104
17,TACTGAACTTGGGTTCTAACCTGTTGCCT (site TACTGAACTAG),0.159
18,TACTGAACTTGGGTTCTAACCTGTTGCCT (site TACTTAACTAG),0.305
19,TACTGGGCTTGGGTTCTAACCTGTTGCTG (site TACTGGGCTCA),0.684
20,TACTGGGCTTGGGTTCTAACCTGTTGCTG (site TACTGGGCTCC),0.0895
21,TAGAACACTTGGGTTCTAACCTGTTGCCT (site AAGAACACTAG),0.0955
22,TAGAACACTTGGGTTCTAACCTGTTGCCT (site CAGAACACTAG),0.256
